System: patients with MDD and an inadequate response to an SSRI or SNRI
Experiment: Massachusetts General Hospital Sexual Functioning Index (MGH-SFI), Study ACP-103-042
Type: in vivo, human
From the text: “Massachusetts General Hospital Sexual Functioning Index (MGH-SFI)” is described, for instance, in Labbate and Lare, 2001, Psychother Psychosom. 70(4):221-225. This is a patient facing questionnaire that quantifies sexual dysfunction into 5 functional domains (“interest in sex,” “sexual arousal,” “ability to achieve orgasm,” “ability to maintain erection” (males only), and “sexual satisfaction”). Patients rate each item using a 6-point scale ranging from 1 (good function) to 6 (poor function). High scores indicate poor sexual functioning. […] The determination of the subject's status and eligibility for randomization in Stage 2 was made in a double-blind manner. […] Sexual functioning was assessed using the Massachusetts General Hospital Sexual Functioning Index or MGH-SFI (Labbate and Lare, 2001, Psychother Psychosom. 70(4):221-225). This is a patient facing questionnaire that quantifies sexual dysfunction into 5 functional domains (“interest in sex,” “sexual arousal,” “ability to achieve orgasm,” “ability to maintain erection” [malesonly], and “sexual satisfaction”). Patients rate each item using a 6-point scale ranging from 1 (good function) to 6 (poor function). The time frame for this scale is the past month. This scale was administered at baseline and Week 5 in both stages of the study. High scores indicate poor sexual functioning. In ACP-103-042 the mean scores for MGH-SFI at Baseline was calculated over all 5 domains for males and the 4 domains for females. For MGH-SFI (follow-up version) at Study Weeks 5 and 10, the mean was calculated in the same way as MGH-SFI at Baseline. […] Tables 10-27 summarize the detailed data of MGH-SFI individual items of the overall study group (Tables 10-15), the subgroup of age of <=50 (Tables 16-21) and the subgroup of age of >50 (Table 21-26). In Tables 9-26, ANCOVA=analysis of covariance; OC=observed cases; LSM=least squares mean; CI=confidence interval; SD=standard deviation; SE=standard error. Stage 1: Baseline=Study Week 0, Week 5=Study Week 5; Stage 2: Baseline=Study Week 5, Week 5=Study Weeks 10. LSM from the stage-specific ANCOVA analysis with the change from baseline as the outcome, treatment group as a factor, and the corresponding Baseline value as a covariate. 2-sided p-value for treatment difference from the stage-specific ANCOVA analysis. An treatment effect size (Cohen's d) is calculated using the formula: Effect Size=Least Square mean difference between PIM and PBO/SD. The corresponding 95% confidence interval for an effect size is calculated based on the theoretical probability distribution of the effect size. […] Tables 10-15 and 28-38 summarize the detailed data of MGH-SFI individual items of the overall study group (Tables 10-15), the female subgroup (Tables 33-37) and the male subgroup (Table 38-43). An treatment effect size (Cohen's d) is calculated using the formula: Effect Size=Least Square mean difference between PIM and PBO/SD. The corresponding 95% confidence interval for an effect size is calculated based on the theoretical probability distribution of the effect size. In Tables 10-15 and 28-38, ANCOVA=analysis of covariance; OC=observed cases; LSM=least squares mean; CI=confidence interval; SD=standard deviation; SE=standard error. Stage 1: Baseline=Study Week 0, Week 5=Study Week 5; Stage 2: Baseline=Study Week 5, Week 5=Study Weeks 10. LSM from the stage-specific ANCOVA analysis with the change from baseline as the outcome, treatment group as a factor, and the corresponding Baseline value as a covariate. 2-sided p-value for treatment difference from the stage-specific ANCOVA analysis. An treatment effect size (Cohen's d) is calculated using the formula: Effect Size=Least Square mean difference between PIM and PBO/SD. The corresponding 95% confidence interval for an effect size is calculated based on the theoretical probability distribution of the effect size.

[1] = female subgroup, Stage 2, positive = pimavanserin better than placebo
[2] = male subgroup, Stage 1 (Study Week 0 to 5), PIM 34 mg
[3] = male subgroup, Stage 1 (Study Week 5), PIM 34 mg
[4] = male subgroup, Stage 1, PIM 34 mg
[5] = male subgroup, Stage 1, PIM 34 mg vs placebo, change from baseline to Week 5
[6] = male subgroup, Stage 1, PIM 34 mg, Week 5
[7] = male subgroup, Stage 2 (Study Week 5 to 10), PIM 34 mg
[8] = male subgroup, Stage 2 (Study Week 10), PIM 34 mg

CC(C)COc1ccc(CNC(=O)N(Cc2ccc(F)cc2)C2CCN(C)CC2)cc1 [pimavanserin, N-(4-Fluorophenylmethyl)-N-(1-methylpiperidin-4-yl)-N′-(4-(2-methylpropyloxy)phenylmethyl)carbamide]
MGH-SFI 05: Overall Sexual Satisfaction, Effect Size (Cohen's d) [1]: 0.227
MGH-SFI 06: Overall Improvement Since Last Medication Change, Effect Size (Cohen's d) [1]: 0.167
MGH-SFI 01: Interest in Sex, Change from Baseline to Week 5 Mean (SE) [2]: −0.6 (1.04)
MGH-SFI 01: Interest in Sex, Change from Baseline to Week 5 Median [2]: −1.0
MGH-SFI 01: Interest in Sex, Week 5 Mean (SE) [3]: 4.1 (0.63)
MGH-SFI 01: Interest in Sex, Week 5 Median [3]: 5.0
MGH-SFI Item 02: Ability to Get Sexually Aroused or Excited, Change from Baseline to Week 5, Mean (SE) [4]: −0.7 (0.61)
MGH-SFI Item 02: Ability to Get Sexually Aroused or Excited, Change from Baseline to Week 5, Median [4]: 0.0
MGH-SFI Item 03: Ability to Achieve Orgasm, Change from Baseline to Week 5, Mean (SE) [4]: −0.4 (0.61)
MGH-SFI Item 03: Ability to Achieve Orgasm, Change from Baseline to Week 5, Median [4]: 0.0
MGH-SFI Item 04: (Men) Ability to Get and Maintain an Erection, Change from Baseline to Week 5, Mean (SE) [4]: −0.3 (0.78)
MGH-SFI Item 04: (Men) Ability to Get and Maintain an Erection, Change from Baseline to Week 5, Median [4]: 0.0
MGH-SFI Item 05: Overall Sexual Satisfaction, Change from Baseline to Week 5, Mean (SE) [4]: −0.6 (0.81)
MGH-SFI Item 05: Overall Sexual Satisfaction, Change from Baseline to Week 5, Median [4]: 0.0
MGH-SFI Item 06: Overall Improvement Since Last Medication Change, Effect Size (Cohen's d) (male subgroup, Stage 1, PIM 34 mg vs placebo, Week 5): 0.257
MGH-SFI Item 02: Ability to Get Sexually Aroused or Excited, Effect Size (Cohen's d) [5]: 0.358
MGH-SFI Item 03: Ability to Achieve Orgasm, Effect Size (Cohen's d) [5]: 0.053
MGH-SFI Item 04: (Men) Ability to Get and Maintain an Erection, Effect Size (Cohen's d) [5]: 0.105
MGH-SFI Item 05: Overall Sexual Satisfaction, Effect Size (Cohen's d) [5]: 0.047
MGH-SFI Item 02: Ability to Get Sexually Aroused or Excited, Week 5, Mean (SE) [6]: 3.7 (0.68)
MGH-SFI Item 02: Ability to Get Sexually Aroused or Excited, Week 5, Median [6]: 4.0
MGH-SFI Item 03: Ability to Achieve Orgasm, Week 5, Mean (SE) [6]: 4.1 (0.74)
MGH-SFI Item 03: Ability to Achieve Orgasm, Week 5, Median [6]: 5.0
MGH-SFI Item 04: (Men) Ability to Get and Maintain an Erection, Week 5, Mean (SE) [6]: 3.9 (0.70)
MGH-SFI Item 04: (Men) Ability to Get and Maintain an Erection, Week 5, Median [6]: 3.0
MGH-SFI Item 05: Overall Sexual Satisfaction, Week 5, Mean (SE) [6]: 4.6 (0.69)
MGH-SFI Item 05: Overall Sexual Satisfaction, Week 5, Median [6]: 5.0
MGH-SFI Item 06: Overall Improvement Since Last Medication Change, Week 5, Mean (SE) [6]: 3.3 (0.64)
MGH-SFI Item 06: Overall Improvement Since Last Medication Change, Week 5, Median [6]: 3.0
MGH-SFI 01: Interest in Sex, Effect Size (Cohen's d) (male subgroup, Stage 1, positive = pimavanserin better than placebo): 0.104
MGH-SFI 01: Interest in Sex, Change from Baseline to Week 5 Mean (SE) [7]: −0.8 (0.32)
MGH-SFI 01: Interest in Sex, Change from Baseline to Week 5 Median [7]: −1.0
MGH-SFI 01: Interest in Sex, Week 5 Mean (SE) [8]: 3.6 (0.47)
MGH-SFI 01: Interest in Sex, Week 5 Median [8]: 4.0
MGH-SFI Item 02: Ability to Get Sexually Aroused or Excited, Change from Baseline to Week 5, Mean (SE) (male subgroup, Stage 2, PIM 34 mg): −0.6 (0.29)
